Source: patent publication US20110183978A1, “Phenylpyri(mi)dinylazoles” (Bayer CropScience AG, priority 2009, published 2011)

Experiment: physchem

chromatographic logP (pH 2.3, LogP (pH 2.3))	chromatographic logP (pH 2.7, logP (pH 2.7))	SMILES
4.43	4.43	Fc1ccc(-c2nn(CC3CC3(Cl)Cl)cc2Br)cc1 (stereo not shown) [[VI-10], 4-bromo-1-[(2,2-dichlorocyclopropyl)methyl]-3-(4-fluorophenyl)-1H-pyrazole]
4.15	4.15	CC(C)Cn1cc(Br)c(-c2ccc(F)c(C#N)c2)n1 [[VI-11], 5-(4-Bromo-1-isobutyl-1H-pyrazol-3-yl)-2-fluorobenzonitrile]
3.93	3.93	N#Cc1cccc(Cn2cc(Br)c(-c3ccc(F)cc3)n2)c1 [[VI-12], 3-{[4-Bromo-3-(4-fluorophenyl)-1H-pyrazol-1-yl]methyl}benzonitrile]
4.39	4.39	Fc1ccc(-c2nn(Cc3ccccc3F)cc2Br)cc1 [[VI-13], 4-Bromo-1-(2-fluorobenzyl)-3-(4-fluorophenyl)-1H-pyrazole]
3.89	3.89	CCCn1cc(Br)c(-c2ccc(F)cc2)n1 [[VI-14], 4-Bromo-3-(4-fluorophenyl)-1-propyl-1H-pyrazole]
3.63	3.63	CSCCn1cc(Br)c(-c2ccc(F)cc2)n1 [[VI-15], 4-Bromo-3-(4-fluorophenyl)-1-[2-(methylsulphanyl)ethyl]-1H-pyrazole]
4.27	4.27	COC(=O)C(C(C)C)n1cc(Br)c(-c2ccc(F)cc2)n1 (stereo not shown) [[VI-16], Methyl 2-[4-bromo-3-(4-fluorophenyl)-1H-pyrazol-1-yl]-3-methylbutanoate]
3.01	3.01	Fc1ccc(-c2nn(CC3OCCO3)cc2Br)cc1 [[VI-17], 4-Bromo-1-(1,3-dioxolan-2-ylmethyl)-3-(4-fluorophenyl)-1H-pyrazole]
3.9	3.9	Fc1ccc(-c2nn(CC3CC3)cc2Br)cc1 [[VI-18], 4-Bromo-1-(cyclopropylmethyl)-3-(4-fluorophenyl)-1H-pyrazole]
4.39	4.39	CCC(C)n1cc(Br)c(-c2ccc(F)cc2)n1 (stereo not shown) [[VI-19], 4-Bromo-1-sec-butyl-3-(4-fluorophenyl)-1H-pyrazole]
3.51	3.51	CCOCCn1cc(Br)c(-c2ccc(F)cc2)n1 [[VI-20], 4-Bromo-1-(2-ethoxyethyl)-3-(4-fluorophenyl)-1H-pyrazole]
3.08	3.08	CC(CC#N)n1cc(Br)c(-c2ccc(F)cc2)n1 (stereo not shown) [[VI-21], 3-[4-Bromo-3-(4-fluorophenyl)-1H-pyrazol-1-yl]butanonitrile]
4.43	4.43	CC(C1CC1)n1cc(Br)c(-c2ccc(F)cc2)n1 (stereo not shown) [[VI-22], 4-Bromo-1-(1-cyclopropylethyl)-3-(4-fluorophenyl)-1H-pyrazole]
2.69	2.69	N#CCCn1cc(Br)c(-c2ccc(F)cc2)n1 [[VI-23], 3-[4-bromo-3-(4-fluorophenyl)-1H-pyrazol-1-yl]propanonitrile]
5.51	5.51	CC(C)n1nc(-c2ccc(F)cc2)c(Br)c1C(F)(F)F [[VI-24], 4-Bromo-3-(4-fluorophenyl)-1-isopropyl-5-(trifluoromethyl)-1H-pyrazole]
4.11	4.11	CC(C)On1cc(Br)c(-c2ccc(F)cc2)n1 [[VI-25], 4-Bromo-3-(4-fluorophenyl)-1-isopropoxy-1H-pyrazole]
3.59	3.59	Fc1ccc(-c2nn(C3CC3)cc2Br)cc1 [[VI-26], 4-Bromo-1-cyclopropyl-3-(4-fluorophenyl)-1H-pyrazole]
4.77	4.77	CC(C)(C)OC(=O)N1CCC(n2cc(Br)c(-c3ccc(F)cc3)n2)CC1 [[VI-27], Tert-butyl 4-[4-bromo-3-(4-fluorophenyl)-1H-pyrazol-1-yl]piperidin-1-carboxylate]
3.52	3.52	Cn1nc(-c2ccc(F)cc2)c(Br)c1OC(F)F [[VI-b-1], 4-Bromo-5-(difluoromethoxy)-3-(4-fluorophenyl)-1-methyl-1H-pyrazole]
4.61	4.61	CC(C)n1nc(-c2ccc(F)cc2)c(Br)c1OC(F)F [[VI-b-2], 4-Bromo-5-(difluoromethoxy)-3-(4-fluorophenyl)-1-isopropyl-1H-pyrazole]

chromatographic logP (pH 2.3, LogP (pH 2.3))	chromatographic logP (pH 2.7, logP (pH 2.7))	SMILES
4.91	4.91	CC(C)Cn1nc(-c2ccc(F)cc2)c(Br)c1OC(F)F [[VI-b-3], 4-Bromo-5-(difluoromethoxy)-3-(4-fluorophenyl)-1-isobutyl-1H-pyrazole]
	3.15	COc1cc(F)ccc1-c1nn(C)c(OC(F)F)c1Br [[VI-b-4], 4-Bromo-5-(difluoromethoxy)-3-(4-fluoro-2-methoxyphenyl)-1-methyl-1H-pyrazole]
3.48	3.48	Cn1nc(-c2ccc(F)cc2O)c(Br)c1OC(F)F [[VI-c-1], 2-[4-Bromo-5-(difluoromethoxy)-1-methyl-1H-pyrazol-3-yl]-5-fluorophenol]
	2.29	Fc1ccc(-c2n[nH]cc2Br)cc1 [[VII-I], 4-Bromo-3-(4-fluorophenyl)-1H-pyrazole]
1.23	1.23	Fc1ccc(-c2c(-c3ccncc3)cnn2C2CCCCO2)cc1 (stereo not shown) [[X-1], 4-[5-(4-Fluorophenyl)-1-(tetrahydro-2H-pyran-2-yl)-1H-pyrazol-4-yl]pyridine]
1.61		COc1ccc(-c2c(-c3ccncc3)cnn2C2CCCCO2)c2ccccc12 (stereo not shown) [[X-2], 4-[5-(4-methoxy-1-naphthyl)-1-(tetrahydro-2H-pyran-2-yl)-1H-pyrazol-4-yl]pyridine]
1.72		Fc1ccc(-c2c(-c3ccncc3)cnn2C2CCCCO2)c2ccccc12 (stereo not shown) [[X-3], 4-[5-(4-fluoro-1-naphthyl)-1-(tetrahydro-2H-pyran-2-yl)-1H-pyrazol-4-yl]pyridine]
1.57		Fc1ccc(-c2c(-c3ccncc3)cnn2C2CCCCO2)cc1Cl (stereo not shown) [[X-6], 4-[5-(3-chloro-4-fluorophenyl)-1-(tetrahydro-2H-pyran-2-yl)-1H-pyrazol-4-yl]pyridine]
1.35		Fc1ccc(-c2c(-c3ccncc3)cnn2C2CCCCO2)c(F)c1 (stereo not shown) [[X-8], 4-[5-(2,4-difluorophenyl)-1-(tetrahydro-2H-pyran-2-yl)-1H-pyrazol-4-yl]pyridine]
2.02		CC(C)(C)c1ccc(-c2c(-c3ccncc3)cnn2C2CCCCO2)cc1 (stereo not shown) [[X-9], 4-[5-(4-tert-butylphenyl)-1-(tetrahydro-2H-pyran-2-yl)-1H-pyrazol-4-yl]pyridine]
1.45		N#Cc1cc(-c2c(-c3ccncc3)cnn2C2CCCCO2)ccc1F (stereo not shown) [[X-12], 2-fluoro-5-[4-(pyridin-4-yl)-1-(tetrahydro-2H-pyran-2-yl)-1H-pyrazol-5-yl]benzonitrile]
1.26		COc1cc(F)ccc1-c1c(-c2ccncc2)cnn1C1CCCCO1 (stereo not shown) [[X-14], 4-[5-(4-fluoro-2-methoxyphenyl)-1-(tetrahydro-2H-pyran-2-yl)-1H-pyrazol-4-yl]pyridine]
1.26		c1cc(-c2cnn(C3CCCCO3)c2-c2ccc(N3CCOCC3)cc2)ccn1 (stereo not shown) [[X-15], 4-{4-[4-(pyridin-4-yl)-1-(tetrahydro-2H-pyran-2-yl)-1H-pyrazol-5-yl]phenyl}morpholine]
1.88		c1ccc(Oc2cccc(-c3c(-c4ccncc4)cnn3C3CCCCO3)c2)cc1 (stereo not shown) [[X-16], 4-[5-(3-phenoxyphenyl)-1-(tetrahydro-2H-pyran-2-yl)-1H-pyrazol-4-yl]pyridine]
0.96		CS(=O)(=O)c1ccc(-c2c(-c3ccncc3)cnn2C2CCCCO2)cc1 (stereo not shown) [[X-17], 4-{5-[4-(methylsulphonyl)phenyl]-1-(tetrahydro-2H-pyran-2-yl)-1H-pyrazol-4-yl}pyridine]
1.78		FC(F)(F)Oc1ccc(-c2c(-c3ccncc3)cnn2C2CCCCO2)cc1 (stereo not shown) [[X-19], 4-{1-(tetrahydro-2H-pyran-2-yl)-5-[4-(trifluoromethoxy)phenyl]-1H-pyrazol-4-yl}pyridine]
1.66		Clc1cccc(-c2c(-c3ccncc3)cnn2C2CCCCO2)c1Cl (stereo not shown) [[X-20], 4-[5-(2,3-dichlorophenyl)-1-(tetrahydro-2H-pyran-2-yl)-1H-pyrazol-4-yl]pyridine]
1.33		CN(C)c1cccc(-c2c(-c3ccncc3)cnn2C2CCCCO2)c1 (stereo not shown) [[X-21], N,N-dimethyl-3-[4-(pyridin-4-yl)-1-(tetrahydro-2H-pyran-2-yl)-1H-pyrazol-5-yl]aniline]
1.64		c1ccc(COc2ccccc2-c2c(-c3ccncc3)cnn2C2CCCCO2)cc1 (stereo not shown) [[X-22], 4-{5-[2-(benzyloxy)phenyl]-1-(tetrahydro-2H-pyran-2-yl)-1H-pyrazol-4-yl}pyridine]
0.92		NS(=O)(=O)c1ccc(-c2c(-c3ccncc3)cnn2C2CCCCO2)cc1 (stereo not shown) [[X-23], 4-[4-(pyridin-4-yl)-1-(tetrahydro-2H-pyran-2-yl)-1H-pyrazol-5-yl]benzenesulphonamide]

SMILES	chromatographic logP (pH 2.3, LogP (pH 2.3))	chromatographic logP (pH 2.7, logP (pH 2.7))
FC1(F)Oc2cccc(-c3c(-c4ccncc4)cnn3C3CCCCO3)c2O1 (stereo not shown) [[X-4], 4-[5-(2,2-difluoro-1,3-benzodioxol-4-yl)-1-(tetrahydro-2H-pyran-2-yl)-1H-pyrazol-4-yl]pyridine]	1.64	
c1ccc(Oc2ccc(-c3c(-c4ccncc4)cnn3C3CCCCO3)cc2)cc1 (stereo not shown) [[X-10], 4-[5-(4-phenoxyphenyl)-1-(tetrahydro-2H-pyran-2-yl)-1H-pyrazol-4-yl]pyridine]	1.88	
N#Cc1cccc(-c2c(-c3ccncc3)cnn2C2CCCCO2)c1 (stereo not shown) [[X-11], 3-[4-(pyridin-4-yl)-1-(tetrahydro-2H-pyran-2-yl)-1H-pyrazol-5-yl]benzonitrile]	1.23	
Clc1ccc(-c2c(-c3ccncc3)cnn2C2CCCCO2)cc1 (stereo not shown) [[X-18], 4-[5-(4-chlorophenyl)-1-(tetrahydro-2H-pyran-2-yl)-1H-pyrazol-4-yl]pyridine]	1.52	
